The values that follow are results of earlier work, collected in US20190192686A1, “TARGETED NANODROPLET EMULSIONS FOR TREATING CANCER” (The University of Louisville Research Foundation,, priority 2016, published 2019).

In the data set the target is plasma membrane nucleolin (Homo sapiens, UniProt P19338). Further details: key: ^1: Indicates a good plasma membrane nucleolin-binding GRO.; ^2: Indicates a nucleolin control (non-plasma membrane nucleolin binding). The note with it: superscript designation in Table 1.
Sequence of plasma membrane nucleolin (P19338 whole entry): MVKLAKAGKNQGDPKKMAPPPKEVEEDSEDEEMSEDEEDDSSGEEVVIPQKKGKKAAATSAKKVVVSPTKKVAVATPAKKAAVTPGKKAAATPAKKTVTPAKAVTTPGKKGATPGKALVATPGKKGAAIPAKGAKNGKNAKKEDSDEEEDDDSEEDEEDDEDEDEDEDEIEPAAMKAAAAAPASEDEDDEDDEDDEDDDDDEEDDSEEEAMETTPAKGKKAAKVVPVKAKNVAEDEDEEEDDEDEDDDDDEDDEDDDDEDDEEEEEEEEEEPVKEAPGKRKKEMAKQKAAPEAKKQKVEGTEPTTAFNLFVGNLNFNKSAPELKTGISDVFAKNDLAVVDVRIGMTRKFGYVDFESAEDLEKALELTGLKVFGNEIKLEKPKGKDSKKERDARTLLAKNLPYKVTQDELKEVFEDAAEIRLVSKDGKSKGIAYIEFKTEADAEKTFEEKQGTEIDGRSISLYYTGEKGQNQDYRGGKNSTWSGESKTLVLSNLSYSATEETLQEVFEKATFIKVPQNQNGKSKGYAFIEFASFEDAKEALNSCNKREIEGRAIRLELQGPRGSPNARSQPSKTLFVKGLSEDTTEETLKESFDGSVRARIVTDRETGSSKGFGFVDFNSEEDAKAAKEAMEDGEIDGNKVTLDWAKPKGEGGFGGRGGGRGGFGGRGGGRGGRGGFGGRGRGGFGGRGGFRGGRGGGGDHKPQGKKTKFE
As to “GRO Q: gcatgct (GCATGCT; listed as DNA, chemistry not given here)”, the “plasma membrane nucleolin binding” value is listed as “GRO Q^2”.
“GRO S: tagg (TAGG; listed as DNA, chemistry not given here)”: the “plasma membrane nucleolin binding” value is “GRO S^2”.
On to “GRO J: ggggttttgg ggttttgggg ttttgggg (DNA GGGGTTTTGGGGTTTTGGGGTTTTGGGG; listed as DNA, chemistry not fully specified)”, for which the “plasma membrane nucleolin binding” value is reported as “GRO J^1”.
As for “GRO15B: ttgggggggg tgggt (TTGGGGGGGGTGGGT; listed as DNA, chemistry not fully specified)”, the “plasma membrane nucleolin binding” value is reported as “GRO15B^2”.
With “GRO T: ggggttgggg tgtggggttg ggg (GGGGTTGGGGTGTGGGGTTGGGG; listed as DNA, chemistry not given here)”, the “plasma membrane nucleolin binding” value is given as “GRO T^2”.
Consider “GRO M: ggttttggtt ttggttttgg ttttgg (GGTTTTGGTTTTGGTTTTGGTTTTGG; aptamer; listed as DNA, chemistry not fully specified)”, for which the “plasma membrane nucleolin binding” value is reported as “GRO M^1”.
For GRO P: tggggt, the “plasma membrane nucleolin binding” value is on record as “GRO P^2”.
In the case of “GRO N: tttcctcctc ctccttctcc tcctcctcc (TTTCCTCCTCCTCCTTCTCCTCCTCCTCC; listed as DNA, chemistry not fully specified)”, the “plasma membrane nucleolin binding” value is on record as “GRO N^2”.
Consider GRO26B: ggtggtggtg gttgtggtgg tggtgg, for which the “plasma membrane nucleolin binding” value was “GRO26B^1”.
As for GRO G: ggttggtgtg gttgg, the “plasma membrane nucleolin binding” value is reported as “GRO G^1”.
For the substance “GRO H: ggggttttgg gg (DNA GGGGTTTTGGGG; listed as DNA, chemistry not fully specified)”, the “plasma membrane nucleolin binding” value is on record as “GRO H^1”.
Consider “GRO R: gcggtttgcg g (GCGGTTTGCGG; listed as DNA, chemistry not given here)”, for which the “plasma membrane nucleolin binding” value is listed as “GRO R^2”.
In the case of “GRO K: ttggggttgg ggttggggtt gggg (DNA TTGGGGTTGGGGTTGGGGTTGGGG; listed as DNA, chemistry not fully specified)”, the “plasma membrane nucleolin binding” value is “GRO K^1”.
“GRO O: cctcctcctc cttctcctcc tcctcc (CCTCCTCCTCCTTCTCCTCCTCCTCC; aptamer; listed as DNA, chemistry not fully specified)”: the “plasma membrane nucleolin binding” value is “GRO O^2”.
On to “GRO I: gggttttggg (DNA GGGTTTTGGG; listed as DNA, chemistry not fully specified)”, for which the “plasma membrane nucleolin binding” value is given as “GRO I^1”.
